# In US20260284074A1, “ENT1 Inhibitors in Combination with Checkpoint Inhibitors” (iTeos Belgium SA, priority 2023, published 2026):
# Experiments:
# ENT1 = target: T1, ENT1 (Homo sapiens, UniProt Q99808); assay: ENT1 transport inhibition assay (uridine transport); assay type: cell-based
# T1 sequence (Q99808 1-456): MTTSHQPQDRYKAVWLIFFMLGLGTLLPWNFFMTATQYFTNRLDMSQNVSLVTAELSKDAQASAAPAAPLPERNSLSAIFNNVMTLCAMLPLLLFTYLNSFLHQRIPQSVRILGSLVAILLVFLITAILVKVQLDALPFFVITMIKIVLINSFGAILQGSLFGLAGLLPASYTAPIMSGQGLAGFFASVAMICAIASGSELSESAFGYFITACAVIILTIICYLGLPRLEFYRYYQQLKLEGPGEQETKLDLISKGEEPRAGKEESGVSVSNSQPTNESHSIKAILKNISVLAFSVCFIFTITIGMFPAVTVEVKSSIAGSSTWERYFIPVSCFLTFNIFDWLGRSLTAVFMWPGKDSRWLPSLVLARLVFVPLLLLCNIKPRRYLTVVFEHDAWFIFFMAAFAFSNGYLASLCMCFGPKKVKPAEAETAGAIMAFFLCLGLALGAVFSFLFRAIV
# human T cells [1] = assay: [3H]adenosine uptake in activated human T cells; assay type: cell-based; conditions: Homo sapiens, T-cell; T cells activated 2 days in presence of compound, washed, [3H]adenosine uptake; read-out: IC50, inhibition of uptake of adenosine into human T cells
# From the text: Applicant observed that activated human T cells took up [3H]adenosine, and this uptake was reduced in the presence of the selective ENT1 inhibitor dilazep, confirming that ENT1 is the dominant transporter involved in adenosine uptake in T cells.
# Human T cells were activated for 2 days in the presence of Compound 1 or dilazep. The cells were then washed and used in a [^3H]adenosine uptake experiment. […] (See FIG. 27A.)
# human T cells [2] = assay: CMV pp65 peptide-specific T cell expansion and antigen-specific killing with ATP; assay type: cell-based; conditions: 300 μM ATP as a source of adenosine
# Procedure: FIGS. 29A and 29B show the results of an experiment whereby human T cells were activated in the presence of 300 μM ATP and Compound 1, anti-PD-1, or Compound 1 and anti-PD-1.
# Human T cells were activated in the presence of 300 μM ATP and Compound 1, anti-PD-1, or Compound 1 and anti-PD-1. CD8+ T cell population was monitored by tetramer-positive (Tet+) staining data. […] (See FIGS. 29A-29B).
# human T cells [3] = assay: T cell proliferation by CFSE dilution in the presence of ATP; assay type: cell-based; conditions: Homo sapiens, read-out: IC50, restoration of T cell proliferation
# Procedure: Human T cells were activated in the presence of 100 μM ATP and dilazep or Compound 1 and proliferation was monitored by CarboxyFluoroscein Succinimidyl Ester (CFSE) dilution. […] (See FIG. 27B.)
# MDA-MB-231 cells = assay: MDA-MB-231 subcutaneous tumor model in humanized NCG mice; assay type: in vivo, mouse; conditions: day 51; Compound 1 30 mg/kg i.p. twice a day; nivolumab 10 mg/kg i.p. every 5 days
# Procedure: The anti-tumor therapeutic efficacy of Compound 1 monotherapy, nivolumab monotherapy, and Compound 1-nivolumab combination therapy was assessed in ‘humanized’ mice with subcutaneous tumors resulting from the subcutaneous injection of MDA-MB-231 cells, a human triple-negative breast cancer cell line.
# Human cell line xenograft experiments were performed at Transcure (France) and all associated animal procedures were reviewed and approved by the local ethics committee. The experiment was carried out with the NOD-Prkdc^em26cd52Il2rg^em26cd22/NjuCrl immunodeficient mouse strain (NCG from Charles River Laboratories, Wilmington, MA, USA). Four-week-old immunodeficient NCG mice were engrafted with cord-blood-derived human CD34^+ hematopoietic stem and progenitor cells (French Blood Institute, Paris, France) 2 days after chemical myeloablative treatment. Fourteen weeks after cell injection, engraftment level was monitored with the analysis of human CD45^+ cells among total blood leukocytes by flow cytometry (Attune, Life Technologies/Thermo Fisher Scientific, Waltham, MA, USA). […]
# All the animals used were monitored daily, checking their clinical signs of distress and body weight and tumors were measured three times a week using an electronic caliper. The tumor volume was determined by applying the formula Length×(Width)^2×0.5. […]
smiles,measurement,setting,value
"COc1cc(C(=O)O[C@@H]2CCCOc3cc(cc(OC)c3OC)C(=O)NCCCN3CCCN(CC2)CC3)cc(OC)c1OC [Compound 1, (12R)-7^4,7^5-dimethoxy-6-oxo-8-oxa-5-aza-1(1,4)-diazepana-7(1,3)-benzenacyclotetradecaphane-12-yl 3,4,5-trimethoxybenzoate]",Potency of inhibition of ENT1-mediated uridine transport (in words),ENT1,nanomolar potency
same,IC50,"ENT1; read-out: IC50, ENT1 inhibition (ENT1-mediated uridine transport)",2.2 nM
same,IC50,human T cells [1],0.2 nM
same,Antigen-specific killing activity,human T cells [2],restoration
same,CMV pp65 peptide-specific T cell expansion,human T cells [2]; tetramer-positive CD8+ T cells,restores
same,IC50,human T cells [3],0.06 nM
same,Tumor volume compared with vehicle group,MDA-MB-231 cells,not statistically significantly different
